ChEMBL document CHEMBL2413072, “Synthesis and in vitro anticancer studies of novel C-2 arylidene congeners of lantadenes” (2013)

What was measured:
Type in all cases: functional
[1] = test system: SF-268; assay: Growth inhibition of human SF268 cells by sulforhodamine B assay
[2] = Growth inhibition of human HCC2998 cells by sulforhodamine B assay
[3] = test system: NCI-H522; assay: Growth inhibition of human NCI-H522 cells by sulforhodamine B assay
[4] = test system: HOP-62; assay: Growth inhibition of human HOP62 cells by sulforhodamine B assay
[5] = test system: RPMI-8226; assay: Growth inhibition of human RPMI8226 cells by sulforhodamine B assay
[6] = test system: K562; assay: Growth inhibition of human K562 cells by sulforhodamine B assay
[7] = test system: SK-MEL-2; assay: Growth inhibition of human SK-MEL-2 cells assessed as cell growth at 10^-8 M by sulforhodamine B assay; conditions: read-out: Activity
[8] = test system: U-251; assay: Growth inhibition of human U251 cells assessed as cell growth at 10^-8 M by sulforhodamine B assay; conditions: read-out: Activity
[9] = test system: NCI-H226; assay: Growth inhibition of human NCI-H226 cells assessed as cell growth at 10^-8 M by sulforhodamine B assay; conditions: read-out: Activity
[10] = test system: HL-60(TB); assay: Growth inhibition of human HL-60(TB) cells assessed as cell growth at 10^-8 M by sulforhodamine B assay; conditions: read-out: Activity
[11] = test system: 786-0; assay: Growth inhibition of human 786-0 cells by sulforhodamine B assay
[12] = Growth inhibition of human NCI-ADR-RES cells by sulforhodamine B assay
[13] = test system: SK-MEL-28; assay: Growth inhibition of human SK-MEL-28 cells by sulforhodamine B assay
[14] = test system: SF-539; assay: Growth inhibition of human SF539 cells by sulforhodamine B assay
[15] = test system: RXF 393; assay: Growth inhibition of human RXF393 cells assessed as cell growth at 10^-4 M by sulforhodamine B assay; conditions: read-out: Activity
[16] = test system: ACHN; assay: Growth inhibition of human ACHN cells assessed as cell growth at 10^-4 M by sulforhodamine B assay; conditions: read-out: Activity
[17] = test system: OVCAR-3; assay: Growth inhibition of human OVCAR3 cells assessed as cell growth at 10^-4 M by sulforhodamine B assay; conditions: read-out: Activity
[18] = test system: UACC-257; assay: Growth inhibition of human UACC257 cells assessed as cell growth at 10^-4 M by sulforhodamine B assay; conditions: read-out: Activity
[19] = test system: SNB-75; assay: Growth inhibition of human SNB75 cells assessed as cell growth at 10^-4 M by sulforhodamine B assay; conditions: read-out: Activity
[20] = test system: MCF7; assay: Growth inhibition of human MCF7 cells assessed as cell growth at 10^-6 M by sulforhodamine B assay; conditions: read-out: Activity
[21] = test system: OVCAR-8; assay: Growth inhibition of human OVCAR8 cells assessed as cell growth at 10^-6 M by sulforhodamine B assay; conditions: read-out: Activity
[22] = test system: UACC-62; assay: Growth inhibition of human UACC62 cells assessed as cell growth at 10^-6 M by sulforhodamine B assay; conditions: read-out: Activity
[23] = test system: U-251; assay: Growth inhibition of human U251 cells assessed as cell growth at 10^-6 M by sulforhodamine B assay; conditions: read-out: Activity
[24] = test system: KM12; assay: Growth inhibition of human KM12 cells assessed as cell growth at 10^-6 M by sulforhodamine B assay; conditions: read-out: Activity
[25] = test system: COLO 205; assay: Growth inhibition of human COLO205 cells assessed as cell growth at 10^-6 M by sulforhodamine B assay; conditions: read-out: Activity
[26] = test system: HOP-62; assay: Growth inhibition of human HOP62 cells assessed as cell growth at 10^-6 M by sulforhodamine B assay; conditions: read-out: Activity
[27] = test system: SR; assay: Growth inhibition of human SR cells assessed as cell growth at 10^-6 M by sulforhodamine B assay; conditions: read-out: Activity
[28] = test system: OVCAR-5; assay: Growth inhibition of human OVCAR5 cells assessed as cell growth at 10^-7 M by sulforhodamine B assay; conditions: read-out: Activity
[29] = test system: OVCAR-3; assay: Growth inhibition of human OVCAR3 cells assessed as cell growth at 10^-7 M by sulforhodamine B assay; conditions: read-out: Activity
[30] = test system: U-251; assay: Growth inhibition of human U251 cells assessed as cell growth at 10^-7 M by sulforhodamine B assay; conditions: read-out: Activity
[31] = test system: SNB-75; assay: Growth inhibition of human SNB75 cells assessed as cell growth at 10^-7 M by sulforhodamine B assay; conditions: read-out: Activity
[32] = test system: SNB-19; assay: Growth inhibition of human SNB19 cells assessed as cell growth at 10^-7 M by sulforhodamine B assay; conditions: read-out: Activity
[33] = test system: NCI-H460; assay: Growth inhibition of human NCI-H460 cells assessed as cell growth at 10^-7 M by sulforhodamine B assay; conditions: read-out: Activity
[34] = test system: NCI-H322M; assay: Growth inhibition of human NCI-H322M cells assessed as cell growth at 10^-7 M by sulforhodamine B assay; conditions: read-out: Activity
[35] = test system: DU-145; assay: Growth inhibition of human DU145 cells assessed as cell growth at 10^-8 M by sulforhodamine B assay; conditions: read-out: Activity
[36] = test system: PC-3; assay: Growth inhibition of human PC3 cells assessed as cell growth at 10^-8 M by sulforhodamine B assay; conditions: read-out: Activity
[37] = test system: UO-31; assay: Growth inhibition of human UO31 cells assessed as cell growth at 10^-8 M by sulforhodamine B assay; conditions: read-out: Activity
[38] = test system: RXF 393; assay: Growth inhibition of human RXF393 cells assessed as cell growth at 10^-8 M by sulforhodamine B assay; conditions: read-out: Activity
[39] = read-out: LC50 (the source's name)
[40] = read-out: pLC50 (the source's name) (converted)

C/C=C(/C)C(=O)O[C@@H]1CC(C)(C)C[C@H]2C3=CC[C@@H]4[C@@]5(C)CCC(=O)C(C)(C)[C@@H]5CC[C@@]4(C)[C@]3(C)CC[C@@]12C(=O)O [LANTADENE A]
GI50 ([1]; read-out: GI50): 5.96 µM | LC50 ([1]; read-out: LC50): > 100 µM | TGI ([1]; read-out: TGI): > 100 µM | GI50 ([1]; read-out: pGI50 (converted)): 6.03 µM | LC50 ([1]; read-out: pLC50 (converted)): > 100 µM | TGI ([1]; read-out: pTGI (converted)): > 100 µM | GI50 ([2]; HCC 2998, read-out: GI50): 3.33 µM | CC50 ([2]; HCC 2998, read-out: LC50 (the source's name)): > 100 µM | TGI ([2]; HCC 2998, read-out: TGI): > 100 µM | GI50 ([2]; HCC 2998, read-out: pGI50 (converted)): 3.31 µM | CC50 ([2]; HCC 2998, read-out: pLC50 (the source's name) (converted)): > 100 µM | TGI ([2]; HCC 2998, read-out: pTGI (converted)): > 100 µM | GI50 ([3]; read-out: GI50): 3.25 µM | CC50 [3, 39]: > 100 µM | TGI ([3]; read-out: TGI): 44.1 µM | GI50 ([3]; read-out: pGI50 (converted)): 3.24 µM | CC50 [3, 40]: > 100 µM | TGI ([3]; read-out: pTGI (converted)): 43.7 µM | GI50 ([4]; read-out: GI50): 20.6 µM | LC50 (concentration killing 50% of cells) ([4]; read-out: LC50): > 100 µM | TGI ([4]; read-out: TGI): > 100 µM | GI50 ([4]; read-out: pGI50 (converted)): 20.4 µM | LC50 (concentration killing 50% of cells) ([4]; read-out: pLC50 (converted)): > 100 µM | TGI ([4]; read-out: pTGI (converted)): > 100 µM | GI50 ([5]; read-out: GI50): 2 µM | CC50 [5, 39]: > 100 µM | TGI ([5]; read-out: TGI): > 100 µM | GI50 ([5]; read-out: pGI50 (converted)): 2 µM | CC50 [5, 40]: > 100 µM | TGI ([5]; read-out: pTGI (converted)): > 100 µM | GI50 ([6]; read-out: GI50): 4.72 µM | LC50 ([6]; read-out: LC50): > 100 µM | TGI ([6]; read-out: TGI): > 100 µM | GI50 ([6]; read-out: pGI50 (converted)): 4.68 µM | LC50 ([6]; read-out: pLC50 (converted)): > 100 µM | TGI ([6]; read-out: pTGI (converted)): > 100 µM | growth at 0.01 µM [7]: 111% | growth at 0.01 µM [8]: 98% | growth at 0.01 µM [9]: 85% | growth at 0.01 µM [10]: 100% | GI50 ([11]; read-out: GI50): 3.47 µM | CC50 [11, 39]: > 100 µM | TGI ([11]; read-out: TGI): > 100 µM | GI50 ([11]; read-out: pGI50 (converted)): 3.47 µM | CC50 [11, 40]: > 100 µM | TGI ([11]; read-out: pTGI (converted)): > 100 µM | GI50 ([12]; read-out: GI50): 5.12 µM | CC50 [12, 39]: > 100 µM | TGI ([12]; read-out: TGI): > 100 µM | GI50 ([12]; read-out: pGI50 (converted)): 5.13 µM | CC50 [12, 40]: > 100 µM | TGI ([12]; read-out: pTGI (converted)): > 100 µM | GI50 ([13]; read-out: GI50): 12.8 µM | CC50 [13, 39]: > 100 µM | TGI ([13]; read-out: TGI): > 100 µM | GI50 ([13]; read-out: pGI50 (converted)): 12.9 µM | CC50 [13, 40]: > 100 µM | TGI ([13]; read-out: pTGI (converted)): > 100 µM | GI50 ([14]; read-out: GI50): 6.51 µM | CC50 [14, 39]: > 100 µM | TGI ([14]; read-out: TGI): > 100 µM | GI50 ([14]; read-out: pGI50 (converted)): 6.46 µM | CC50 [14, 40]: > 100 µM | TGI ([14]; read-out: pTGI (converted)): > 100 µM | growth at 100 µM [15]: -15% | growth at 100 µM [16]: 16% | growth at 100 µM [17]: 23% | growth at 100 µM [18]: 21% | growth at 100 µM [19]: 33% | growth at 1 µM [20]: 87% | growth at 1 µM [21]: 95% | growth at 1 µM [22]: 70% | growth at 1 µM [23]: 90% | growth at 1 µM [24]: 84% | growth at 1 µM [25]: 101% | growth at 1 µM [26]: 98% | growth at 1 µM [27]: 80% | growth at 0.1 µM [28]: 100% | growth at 0.1 µM [29]: 109% | growth at 0.1 µM [30]: 94% | growth at 0.1 µM [31]: 89% | growth at 0.1 µM [32]: 89% | growth at 0.1 µM [33]: 98% | growth at 0.1 µM [34]: 97% | growth at 0.01 µM [35]: 104% | growth at 0.01 µM [36]: 93% | growth at 0.01 µM [37]: 96% | growth at 0.01 µM [38]: 95%
